# Measurements reported in patent US11672786B2, “Methods of treating diseases associated with repeat instability” (The Hospital for Sick Children, priority 2016, dated 2023).
# Experiments:
# [1] = system: d(CAG)9; settings: d(CAG)9 immobilization 497 RU; cited from earlier work
# [2] = system: transgene transcript in the CAG-direction, HT1080-(CAG)850 cells; assay: transgene mRNA quantification by quantitative RT-PCR; assay type: cell-based, human; settings: NA 50 μM, 72 hr
# Excerpt: FIG. 5 are results from experiments showing that NA induces CAG contractions in HT1080-(CAG)850 cells, independent of proliferation, dependent upon rCAG transcription. […] Panel B of FIG. 5 are histograms showing repeat length distributions in HT1080-(CAG)850 cells. Frequency distribution of unstable alleles is shown by gray bars. Frequency of stable alleles is shown by black bars. To facilitate comparisons, a dashed line indicates the unchanged CAG size. Allele lengths are grouped in bins spanning 50 repeats. […] More than 50 alleles were sized for each group. P-value was calculated by chi-square test (Table 2). […] P-value was calculated by Student's t-test. […] Quantitative reverse transcription (RT)-PCR was performed using TaqMan Gene Expression assays. […]
# RNA was harvested from the HT1080-(CAG)850 cells at 72 hr after adding or not adding NA using the RNeasy Plus Micro Kit (Qiagen). Total RNA was primed with random hexamers and reverse transcribed with Superscript III (Life Technologies, Carlsbad, Calif.), followed by treatment with RNase H. Quantitative reverse transcription (RT)-PCR was performed using TaqMan Gene Expression assays or PrimeTime qPCR assays on an ABI PRISM 7900HT Sequence Detection System (Life Technologies) and the primer sequences shown in Table 1. […] The results were statistically analyzed using paired t-tests. […]
# [3] = system: Slip-outs of 3, 5, 11 or 15 CAG repeats; assay: band-shift NA binding to slip-outs of 3, 5, 11 or 15 CAG repeats; settings: NA 15 μM and 50 μM
# Description: Slip-outs of 3, 5, 11 or 15 CAG repeats extruded as a single slip-out from a fully base-paired backbone (see top panel, DNAs sequence and structure). One pmol of each substrate was mixed with increasing concentrations of NA (15 μM and 50 μM) and resolved on 4% polyacrylamide gels. All lanes are from the same gel, and they were separated for clarity. NA-DNA complexes are shown by brackets, free DNA is indicated by arrowheads. For the linear substrate, there is no NA binding (white arrowheads); at the higher concentration of NA, a small decrease of the short slip-outs DNAs (3 and 5 repeats) is observed (grey arrowheads), but it is not possible to define a clear shifted band; band-shift is evident for the (CAG)11 and (CAG)15 slip-out DNAs (black arrowheads). The relative mobility shift was measured (graph panel) as the ratio of the migration distance of each NA-DNA complex to the migration distance of the free DNA. The migration distance was measured from the well to a consistent centre point of each band. Histograms indicate the mean of three independent experiments and the corresponding standard deviation. P-values were calculated by Student's t test.
# [4] = system: plasmid harboring (CAG)79●(CTG)79 repeats, R-loops; assay: in vitro transcription, R-loop formation, RNase A/H processing and R-loop stability; assay type: biochemical
# Description: Reaction products were then treated with RNase A (labeled “A”), to cleave all single-stranded RNAs, and resolved on 1% agarose gel. Control treatment with RNaseH (labeled “H”), eliminating RNA:DNA hybrids, was performed to reveal the RNA-free supercoiled DNAs. […] Reaction products then were resolved on 1% agarose gel. […] Double-R-loops were then treated with RNaseA or H (labeled “A” or “H”) and incubated with NA (50 μM). Reaction products were then resolved on 1% agarose gel. […] The position of supercoiled plasmid in dimer or monomer form is indicated by “SC”. The top “SC” represents linked dimers and the bottom “SC” represents monomers. In Panels C, D, and E, NA was either included in the transcription reaction (Panel C), only in the RNAse A/H reaction, only following the RNAse A/H clean-up.
# Transcription reactions were performed as previously described (Reddy et al., 2014, Nuc. Acids Res., 42:10473-87). Briefly, 500 ng of template DNA in 1× transcription buffer (Roche) and 1× bovine serum albumin (NEB) were mixed for 1 h with 20 U of the appropriate RNA polymerase: T7, T3 or T7+T3 (Roche), with or without NA 120 μM. Samples were purified and then treated with either 1 g of RNase A (Roche) alone or with 1 g of RNase A (Roche) and 1 U of E. coli RNase H (Roche), at room temperature for 30 min, in the presence or in the absence of NA (120 μM). All in vitro transcription reaction products were analyzed on 1% agarose gels run in 1×TBE buffer at 80 V for 3 h. Gels were subsequently stained with ethidium bromide (0.5 mg/ml) to allow visualization of total nucleic acid under ultraviolet (UV) light.
# [5] = system: mouse striatum; assay: histological study of mouse striatum, H&E staining; assay type: in vivo; settings: NA in saline injected into striatum
# [6] = system: CASK, ATXN8, and Mfd15 loci in HT1080-(CAG)850 cells; assay: repeat-tract lengths of non-expanded loci in HT1080-(CAG)850 cells; assay type: cell-based, human; settings: 30 days incubation with or without NA
# Excerpt: FIG. 5 are results from experiments showing that NA induces CAG contractions in HT1080-(CAG)850 cells, independent of proliferation, dependent upon rCAG transcription. […] Panel B of FIG. 5 are histograms showing repeat length distributions in HT1080-(CAG)850 cells. Frequency distribution of unstable alleles is shown by gray bars. Frequency of stable alleles is shown by black bars. To facilitate comparisons, a dashed line indicates the unchanged CAG size. Allele lengths are grouped in bins spanning 50 repeats. […] More than 50 alleles were sized for each group. P-value was calculated by chi-square test (Table 2). […] P-value was calculated by Student's t-test. […] Repeat length distributions and average repeat size changes are shown. […] Quantitative reverse transcription (RT)-PCR was performed using TaqMan Gene Expression assays. […]
# Genomic DNA was extracted from HT1080-(CAG)850 clones and HD primary fibroblasts using the Gentra Puregene Cell Kit (Qiagen, Valencia, Calif.). […] At least 50 alleles were analyzed for each of the three experiments (more than 150 alleles for a total study). […] For the histograms in FIGS. 4D, 4E, 10, 11, 5B, 5D, 5E, 14 and 15B, the Y-axis, “% of repeat population” was calculated by determining the proportion of >50 individual small-pool PCR reactions across the CAG repeat tract, that harbored a certain size of repeat product with a certain length. […]
# [7] = system: CAG-CAG; settings: cited from earlier work
substance,measurement,setting,value
naphthyridine-azaquinolone,changes in the SPR intensity on NA binding,[1],140 RU
same,effect on RNA transcript levels of transgene,[2],did not affect transcription of the CAG-repeats containing transcript
same,NA binding by slip-out length (relative mobility shift),[3],significantly better for longer than shorter CAG slip-outs
same,effect on biophysical stability of R-loops,[4]; NA 50 μM or 500 μM,did not affect the biophysical stability of R-loops
same,effect on R-loop formation,[4]; NA 120 μM during transcription,did not affect R-loop formation
same,effect on transcription in vitro,[4]; T3 or T7 RNA polymerases,nor did it affect transcription in vitro
same,brain morphology,[5],did not alter brain morphology
same,"length variation at CASK, ATXN8, and Mfd15 loci",[6],Length variation was not observed
same,affinity of each NA molecule/CAG-CAG as Ka,[7]; estimated,1.8e+06 M⁻¹
same,Kd,"[7]; estimated, read-out: affinity of each NA molecule/CAG-CAG as Kd",560 nM
same,ratio of NA molecules to 1 CAG-CAG,[7]; previously estimated binding stoichiometry,2
